Reference: publication PMC10504751, “Chalcone/1,3,4-Oxadiazole/Benzimidazole hybrids as novel anti-proliferative agents inducing apoptosis and inhibiting EGFR & BRAFV^600E” (BMC Chemistry, 2023)

What was measured:
[1] = MTT cell viability assay in normal cells; format: cell-based; settings: human, MCF-10A normal mammary epithelial cells
Summary of the method: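 Normal human mammary epithelial MCF-10A cells exposed to compounds at 50 µM (0.1% DMSO) for 96 h at 37°C, four wells per compound. Viability by MTT (0.4 mg/mL, 3 h), formazan in DMSO read at 540 nm.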

[2] = tested on: M14; assay: NCI one-dose SRB anti-proliferative screen; format: cell-based; settings: Homo sapiens; M14 (Melanoma), NCI one dose 10 µM; read-out: Cell growth inhibition %
Summary of the method: (§1)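 Colorimetric sulforhodamine B assay after treatment with compound at one concentration, 10 µM.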

[3] = tested on: SF-295; assay: NCI one-dose SRB anti-proliferative screen; format: cell-based; settings: Homo sapiens; SF-295 (CNS Cancer), NCI one dose 10 µM; read-out: Cell growth inhibition %
Summary of the method: as §1

[4] = tested on: MALME-3M; assay: NCI one-dose SRB anti-proliferative screen; format: cell-based; settings: Homo sapiens; MALME-3M (Melanoma), NCI one dose 10 µM; read-out: Cell growth inhibition %
Summary of the method: as §1

[5] = tested on: NCI-H322M; assay: NCI one-dose SRB anti-proliferative screen; format: cell-based; settings: Homo sapiens; NCI-H322M (Non-Small Cell Lung Cancer), NCI one dose 10 µM; read-out: Cell growth inhibition %
Summary of the method: as §1

[6] = tested on: A549/ATCC; assay: NCI one-dose SRB anti-proliferative screen; format: cell-based; settings: Homo sapiens; A549/ATCC (Non-Small Cell Lung Cancer), NCI one dose 10 µM; read-out: Cell growth inhibition %
Summary of the method: as §1

[7] = tested on: CCRF-CEM; assay: NCI one-dose SRB anti-proliferative screen; format: cell-based; settings: Homo sapiens; CCRF-CEM (Leukemia), NCI one dose 10 µM; read-out: Cell growth inhibition %
Summary of the method: as §1

[8] = tested on: NCI-H522; assay: NCI one-dose SRB anti-proliferative screen; format: cell-based; settings: Homo sapiens; NCI-H522 (Non-Small Cell Lung Cancer), NCI one dose 10 µM; read-out: Cell growth inhibition %
Summary of the method: as §1

[9] = tested on: HCC-2998; assay: NCI one-dose SRB anti-proliferative screen; format: cell-based; settings: Homo sapiens; HCC-2998 (Colon Cancer), NCI one dose 10 µM; read-out: Cell growth inhibition %
Summary of the method: as §1

[10] = tested on: NCI-H226; assay: NCI one-dose SRB anti-proliferative screen; format: cell-based; settings: Homo sapiens; NCI-H226 (Non-Small Cell Lung Cancer), NCI one dose 10 µM; read-out: Cell growth inhibition %
Summary of the method: as §1

[11] = tested on: HOP-62; assay: NCI one-dose SRB anti-proliferative screen; format: cell-based; settings: Homo sapiens; HOP-62 (Non-Small Cell Lung Cancer), NCI one dose 10 µM; read-out: Cell growth inhibition %
Summary of the method: as §1

[12] = tested on: COLO 205; assay: NCI one-dose SRB anti-proliferative screen; format: cell-based; settings: Homo sapiens; COLO 205 (Colon Cancer), NCI one dose 10 µM; read-out: Cell growth inhibition %
Summary of the method: as §1

[13] = tested on: HCT-15; assay: NCI one-dose SRB anti-proliferative screen; format: cell-based; settings: Homo sapiens; HCT-15 (Colon Cancer), NCI one dose 10 µM; read-out: Cell growth inhibition %
Summary of the method: as §1

[14] = tested on: EKVX; assay: NCI one-dose SRB anti-proliferative screen; format: cell-based; settings: Homo sapiens; EKVX (Non-Small Cell Lung Cancer), NCI one dose 10 µM; read-out: Cell growth inhibition %
Summary of the method: as §1

[15] = tested on: SNB-75; assay: NCI one-dose SRB anti-proliferative screen; format: cell-based; settings: Homo sapiens; SNB-75 (CNS Cancer), NCI one dose 10 µM; read-out: Cell growth inhibition %
Summary of the method: as §1

[16] = tested on: NCI-H23; assay: NCI one-dose SRB anti-proliferative screen; format: cell-based; settings: Homo sapiens; NCI-H23 (Non-Small Cell Lung Cancer), NCI one dose 10 µM; read-out: Cell growth inhibition %
Summary of the method: as §1

[17] = tested on: SN12C; assay: NCI one-dose SRB anti-proliferative screen; format: cell-based; settings: Homo sapiens, SN 12C (Renal Cancer), NCI one dose 10 µM, read-out: Cell growth inhibition %
Summary of the method: as §1

[18] = tested on: U251; assay: NCI one-dose SRB anti-proliferative screen; format: cell-based; settings: Homo sapiens, U-251; U251 (CNS Cancer), NCI one dose 10 µM; read-out: Cell growth inhibition %
Summary of the method: as §1

[19] = tested on: UACC-62; assay: NCI one-dose SRB anti-proliferative screen; format: cell-based; settings: Homo sapiens; UACC-62 (Melanoma), NCI one dose 10 µM; read-out: Cell growth inhibition %
Summary of the method: as §1

[20] = tested on: OVCAR-4; assay: NCI one-dose SRB anti-proliferative screen; format: cell-based; settings: Homo sapiens; OVCAR-4 (Ovarian Cancer), NCI one dose 10 µM; read-out: Cell growth inhibition %
Summary of the method: as §1

[21] = tested on: SK-OV-3; assay: NCI one-dose SRB anti-proliferative screen; format: cell-based; settings: Homo sapiens; SK-OV-3 (Ovarian Cancer), NCI one dose 10 µM; read-out: Cell growth inhibition %
Summary of the method: as §1

[22] = tested on: SK-MEL-5; assay: NCI one-dose SRB anti-proliferative screen; format: cell-based; settings: Homo sapiens; SK-MEL-5 (Melanoma), NCI one dose 10 µM; read-out: Cell growth inhibition %
Summary of the method: as §1

[23] = tested on: SNB-19; assay: NCI one-dose SRB anti-proliferative screen; format: cell-based; settings: Homo sapiens; SNB-19 (CNS Cancer), NCI one dose 10 µM; read-out: Cell growth inhibition %
Summary of the method: as §1

Compound | viability at 96 h, 50 µM [1] | melting point | inhibition at 10 µM [2] | inhibition at 10 µM [3] | inhibition at 10 µM [4] | inhibition at 10 µM [5] | inhibition at 10 µM [6] | inhibition at 10 µM [7] | inhibition at 10 µM [8] | inhibition at 10 µM [9] | inhibition at 10 µM [10] | inhibition at 10 µM [11] | inhibition at 10 µM [12] | inhibition at 10 µM [13] | inhibition at 10 µM [14] | inhibition at 10 µM [15] | inhibition at 10 µM [16] | inhibition at 10 µM [17] | inhibition at 10 µM [18] | inhibition at 10 µM [19] | also measured
COc1ccc(-c2nc3cc(-c4nnc(SCC(=O)Nc5ccc(C(=O)/C=C/c6ccccc6)cc5)o4)ccc3[nH]2)cc1OC [Compound 7p, 2-{5-[2-(3,4-Dimethoxyphenyl)-1 H-benzo[d]imidazol-5-yl]-1,3,4-oxadiazol-2-ylthio}-N-{4-[(E)-3-phenylacryloyl]phenyl}acetamide] | 87% | 185 to 186 °C | 0% | 5.09% | 2.95% | 0% | 0% | 11.6% | 1.56% | 0% | 1.84% | 0% | 0% | 8.17% | 0% | 9.72% | 0.22% | 5.25% | 6.84% | 4.99% | inhibition at 10 µM [20]: 0%; inhibition at 10 µM [21]: 0%; inhibition at 10 µM [22]: 4.49%; inhibition at 10 µM [23]: 0%
COc1ccc(-c2nc3cc(-c4nnc(SCC(=O)Nc5ccc(C(=O)/C=C/c6ccc(Cl)cc6)cc5)o4)ccc3[nH]2)cc1OC [Compound 7q, 2-{5-[2-(3,4-Dimethoxyphenyl)-1 H-benzo[d]imidazol-5-yl]-1,3,4-oxadiazol-2-ylthio}-N-{4-[(E)-3-(4-chlorophenyl)acryloyl]phenyl}acetamide] | 94% | 194 to 195 °C | 0% | 1.96% | 4.86% | 4.21% | 0% | 0% | 1.57% | 0% | 1.46% | 0% | 0% | 2.92% | 8.14% | 0% | 0% | 5.1% | 0% | 1.95% | inhibition at 10 µM [20]: 0%; inhibition at 10 µM [21]: 0%; inhibition at 10 µM [22]: 2.38%; inhibition at 10 µM [23]: 0%
COc1ccc(/C=C/C(=O)c2ccc(NC(=O)CSc3nnc(-c4ccc5[nH]c(-c6ccc(OC)c(OC)c6)nc5c4)o3)cc2)cc1 [Compound 7r, 2-{5-[2-(3,4-Dimethoxyphenyl)-1 H-benzo[d]imidazol-5-yl]-1,3,4-oxadiazol-2-ylthio}-N-{4-[(E)-3-(4-methoxyphenyl)acryloyl]phenyl}acetamide] | 91% | 170 to 171 °C | 0% | 3.2% | 8.71% | 1.05% | 0% | 38.6% | 14.3% | 0% | 2.08% | 0% | 0% | 2.32% | 3.51% | 1.88% | 5.15% | 6.98% | 0% | 11% | inhibition at 10 µM [20]: 0%; inhibition at 10 µM [21]: 0%; inhibition at 10 µM [22]: 10.8%; inhibition at 10 µM [23]: 0%
COc1cc(-c2nc3cc(-c4nnc(SCC(=O)Nc5ccc(C(=O)/C=C/c6ccccc6)cc5)o4)ccc3[nH]2)cc(OC)c1OC [Compound 7u, 2-{5-[2-(3,4,5-Trimethoxyphenyl)-1 H-benzo[d]imidazol-5-yl]-1,3,4-oxadiazol-2-ylthio}-N-{4-[(E)-3-phenylacryloyl]phenyl}acetamide] | 90% | 188 to 190 °C | 0% | 2% | 2.82% | 0% | 0.78% | 21.9% | 3.99% | 0% | 10.4% | 0% | 0% | 12.3% | 0% | 13.8% | 3.04% | 13.2% | 9.89% | 8.01% | inhibition at 10 µM [20]: 0%; inhibition at 10 µM [21]: 0%; inhibition at 10 µM [22]: 5.99%; inhibition at 10 µM [23]: 0%
